Blank lines part the entries; values can stand above or below the compound they belong to.
Key:
[1] = biological target: T1, Bcs1 (mBcs1) (Mus musculus, UniProt Q9CZP5); experiment: microscale thermophoresis, RED-tris-NTA labelled Bcs1; assay type: binding
T1 construct: gene Bcs1l; full length residues 1-418, C-terminal hexa-His tag, expressed in Pichia pastoris, purified in DDM, homo-heptamer; reconstituted in soy polar lipid membranes for HS-AFM
T1 sequence (Q9CZP5 1-418): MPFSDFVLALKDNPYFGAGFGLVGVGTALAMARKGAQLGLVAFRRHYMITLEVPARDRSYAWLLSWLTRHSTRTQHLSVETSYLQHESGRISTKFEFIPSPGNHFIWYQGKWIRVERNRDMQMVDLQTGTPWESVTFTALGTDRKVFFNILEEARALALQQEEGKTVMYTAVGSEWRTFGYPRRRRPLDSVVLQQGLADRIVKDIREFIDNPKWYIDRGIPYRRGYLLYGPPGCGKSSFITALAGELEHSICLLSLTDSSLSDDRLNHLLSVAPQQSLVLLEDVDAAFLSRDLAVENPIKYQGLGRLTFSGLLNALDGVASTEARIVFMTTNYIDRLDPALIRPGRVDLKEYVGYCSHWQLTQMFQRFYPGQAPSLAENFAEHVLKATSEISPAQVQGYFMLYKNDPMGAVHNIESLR

[2] = biological target: T1, Bcs1 (mBcs1); experiment: HS-AFM imaging, probability of AMP-PNP conformation, Hill fit; assay type: binding
[3] = biological target: T1, Bcs1 (mBcs1); experiment: HS-AFM imaging, conformational change on binding; conditions: 10 µM ATPγS; reconstituted membranes; 10 mM HEPES pH 7.5, 200 mM NaCl, 2 mM MgCl2; ambient temperature

Kd [1]: ~500 nM
Compound: Nc1ncnc2c1ncn2[C@@H]1O[C@H](COP(=O)(O)OP(=O)(O)O)[C@@H](O)[C@H]1O [ADP]

EC50 [2]: ~4000 nM
Compound: Nc1ncnc2c1ncn2[C@@H]1O[C@H](COP(=O)(O)OP(=O)(O)NP(=O)(O)O)[C@@H](O)[C@H]1O [AMP-PNP]

Compound: Nc1ncnc2c1ncn2[C@@H]1O[C@H](COP(=O)(O)OP(=O)(O)OP(O)(O)=S)[C@@H](O)[C@H]1O [ATPγS]
HS-AFM imaging, conformational change on binding [3]: In the presence of ATPγS however, instead of a ring structure, we found a rather flat disk

From PMC10567702, “A concerted ATPase cycle of the protein transporter AAA-ATPase Bcs1” (Nature Communications, 2023)
